Experimental data reported in PMC12670164, “In vitro and clinical data demonstrate negligible risk of drug–drug interactions with opelconazole, a novel inhaled antifungal agent” (Journal of Antimicrobial Chemotherapy, 2025).

Experiments:
[1] = molecular target: CYP3A4 (Homo sapiens, UniProt P08684); experiment: clinical
Procedure: The study documents were approved by an Independent Ethics Committee. Study participants provided written informed consent prior to any study procedures.
Screening occurred within 28 days prior to the first dosing day (Figure 1). […] On Days 1 and 15, participants received oral midazolam 7.5 mg and oral caffeine 180 mg together after food ingestion.
Morning doses of opelconazole on Day 2 and Day 15 were taken 30 min after food ingestion.
Primary PK parameters assessed for midazolam and its metabolites (1-OH-midazolam, 4-OH-midazolam), caffeine and opelconazole were Cmax and AUC, from time zero to t, where t is the time of the last quantifiable concentration (AUC(0−t); i.e., AUC(0−12) and AUC(0−24)). Secondary PK parameters were AUC(0−∞), Tmax, apparent t1/2 and accumulation ratio (RO) of opelconazole only.
For caffeine, midazolam and the metabolites of midazolam, the geometric mean ratio (GMR) of Day 15 estimates to those obtained on Day 1 was derived by fitting a linear mixed effect model with the log of the parameter as the response, visit as the fixed effect, and participant as the random effect.

[2] = test system: CYP1A2; experiment: CYP induction, mRNA endpoint, cryopreserved human hepatocytes; conditions: human, 72 h
Procedure: The potential for opelconazole to act as an inducer of CYP isoforms CYP1A2, CYP2B6 and CYP3A4 was assessed in vitro using an mRNA endpoint across three donors in cryopreserved human hepatocytes. A drug is interpreted as an inducer if: (1) it increases mRNA expression of a CYP enzyme in a concentration-dependent manner and (2) the fold change of CYP mRNA expression relative to vehicle control is ≥2-fold at the drug’s expected hepatic concentrations.[23]
A cytotoxicity assessment using MTT was performed in one of the three donors used for the induction studies prior to dosing.

[3] = test system: CYP1A2; experiment: clinical; conditions: both, human, plasma, po, 180 mg, probe caffeine
Source text: To adjust for any residual caffeine in plasma samples, the estimated contribution of residual, pre-dose caffeine was subtracted from the measured caffeine concentration to produce an ‘adjusted concentration.’ Residual caffeine concentrations were estimated from the baseline concentration and the measured elimination rate in individual participants.

[4] = both, human, in vivo, po, 7.5 mg
[5] = Day 1, oral midazolam 7.5 mg without opelconazole
[6] = Day 15, oral midazolam 7.5 mg after 14 days inhaled opelconazole 14.8 mg twice daily

CYP3A4, sequence (P08684 whole entry): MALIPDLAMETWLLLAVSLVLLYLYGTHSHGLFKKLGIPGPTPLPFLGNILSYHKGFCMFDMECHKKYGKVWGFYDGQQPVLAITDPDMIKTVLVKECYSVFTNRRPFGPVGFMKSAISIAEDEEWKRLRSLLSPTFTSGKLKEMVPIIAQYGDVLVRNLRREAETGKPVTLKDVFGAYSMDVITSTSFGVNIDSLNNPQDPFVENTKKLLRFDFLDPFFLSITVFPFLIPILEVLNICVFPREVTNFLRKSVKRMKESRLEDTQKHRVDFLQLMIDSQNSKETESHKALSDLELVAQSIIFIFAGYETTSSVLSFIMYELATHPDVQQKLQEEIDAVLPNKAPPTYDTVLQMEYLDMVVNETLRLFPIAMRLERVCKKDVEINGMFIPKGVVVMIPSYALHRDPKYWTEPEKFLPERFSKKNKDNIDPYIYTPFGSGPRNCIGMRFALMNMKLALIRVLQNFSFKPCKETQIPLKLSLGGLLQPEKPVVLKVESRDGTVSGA

| SMILES | AUC(0–24h), geometric mean [1, 5] [ng·h/mL] | Cmax, geometric mean [1, 5] [ng/mL] | AUC(0–24h), geometric mean [1, 6] [ng·h/mL] | Cmax, geometric mean [1, 6] [ng/mL] | further results |
| --- | --- | --- | --- | --- | --- |
| Cc1ncc2n1-c1ccc(Cl)cc1C(c1ccccc1F)=NC2 [Midazolam, midazolam, reference compound] | – | – | – | – | AUC(0-t) [1, 4]: 166 ng·h/mL; Cmax [1, 4]: 35.1 ng/mL |
| OCc1ncc2n1-c1ccc(Cl)cc1C(c1ccccc1F)=NC2 [1-OH-Midazolam, 1-OH-midazolam] | 72.8 | 16.7 | 60.9 | 13.4 | – |
| COc1ccc2[nH]c([S+]([O-])Cc3ncc(C)c(OC)c3C)nc2c1 (stereo not shown) [omeprazole, reference compound] | – | – | – | – | induction outcome of positive control relative to opelconazole [2]: > 30 fold |
| Cc1ncc2n1-c1ccc(Cl)cc1C(c1ccccc1F)=NC2O (stereo not shown) [4-OH-Midazolam, 4-OH-midazolam] | 8.92 | 1.97 | 8.70 | 1.78 | – |
| Cn1c(=O)c2c(ncn2C)n(C)c1=O [Caffeine, caffeine] | – | – | – | – | AUC(0-t) [3]: 33200 ng·h/mL; Cmax [3]: 3280 ng/mL |
